# Patent publication US20240270762A1, “PENICILLIN-BINDING PROTEIN INHIBITORS” (priority 2021, published 2024)
# Columns and labels:
# N. gonorrhoeae WHO M = experiment: Liquid broth MIC in Fastidious broth; conditions: Neisseria gonorrhoeae, read-out: Minimum Inhibitory Concentration, WHO M
# N. gonorrhoeae CDC-0197 = experiment: Liquid broth MIC in Fastidious broth; conditions: Neisseria gonorrhoeae, CDC0197, read-out: Minimum Inhibitory Concentration, CDC-0197
Compound,MIC (N. gonorrhoeae WHO M) [µg/mL],MIC (N. gonorrhoeae CDC-0197) [µg/mL]
"O=C(O)c1c(F)ccc2c1OB(O)[C@@H](NC(=O)C(NC(=O)N1CCN(C3CCN(C(=O)c4cccc(O)c4)CC3)C(=O)C1=O)c1cc(F)c(O)c(O)c1Cl)C2 (stereo partly drawn) [Example 293, (3R)-3-(2-(2-chloro-5-fluoro-3,4-dihydroxyphenyl)-2-(4-(1-(3-hydroxybenzoyl)piperidin-4-yl)-2,3-dioxopiperazine-1-carboxamido)acetamido)-7-fluoro-2-hydroxy-3,4-dihydro-2H-benzo[e][1,2]oxaborinine-8-carboxylic acid]",16 to 32,> 64
"Cc1cnccc1C(=O)NCCCN1CCN(C(=O)NC(C(=O)N[C@H]2Cc3ccc(F)c(C(=O)O)c3OB2O)c2cc(F)c(O)c(O)c2Cl)C(=O)C1=O (stereo partly drawn) [Example 297, (3R)-3-(2-(2-chloro-5-fluoro-3,4-dihydroxyphenyl)-2-(4-(3-(3-methylisonicotinamido)propyl)-2,3-dioxopiperazine-1-carboxamido)acetamido)-7-fluoro-2-hydroxy-3,4-dihydro-2H-benzo[e][1,2]oxaborinine-8-carboxylic acid]",16 to 32,> 64
"O=C(NCCCN1CCN(C(=O)NC(C(=O)N[C@H]2Cc3ccc(F)c(C(=O)O)c3OB2O)c2cc(F)c(O)c(O)c2Cl)C(=O)C1=O)c1ccc(O)c(Cl)c1 (stereo partly drawn) [Example 305, (3R)-3-(2-(4-(3-(3-chloro-4-hydroxybenzamido)propyl)-2,3-dioxopiperazine-1-carboxamido)-2-(2-chloro-5-fluoro-3,4-dihydroxyphenyl)acetamido)-7-fluoro-2-hydroxy-3,4-dihydro-2H-benzo[e][1,2]oxaborinine-8-carboxylic acid]",16 to 32,> 64
"O=C(NCCCN1CCN(C(=O)NC(C(=O)N[C@H]2Cc3ccc(F)c(C(=O)O)c3OB2O)c2cc(F)c(O)c(O)c2Cl)C1=O)c1ccc(O)cc1 (stereo partly drawn) [Example 280, (3R)-3-(2-(2-chloro-5-fluoro-3,4-dihydroxyphenyl)-2-(3-(3-(4-hydroxybenzamido)propyl)-2-oxoimidazolidine-1-carboxamido)acetamido)-7-fluoro-2-hydroxy-3,4-dihydro-2H-benzo[e][1,2]oxaborinine-8-carboxylic acid]",16 to 32,> 64
"O=C(NCCCN1CCN(C(=O)N[C@@H](C(=O)N[C@H]2Cc3ccc(F)c(C(=O)O)c3OB2O)c2cc(F)c(O)c(O)c2Cl)C(=O)C1=O)c1ccncc1 [Example 294, (R)-3-((R)-2-(2-chloro-5-fluoro-3,4-dihydroxyphenyl)-2-(4-(3-(isonicotinamido)propyl)-2,3-dioxopiperazine-1-carboxamido)acetamido)-7-fluoro-2-hydroxy-3,4-dihydro-2H-benzo[e][1,2]oxaborinine-8-carboxylic acid]",16 to 32,> 64
"O=C(NCCCN1CCN(C(=O)NC(C(=O)N[C@H]2Cc3ccc(F)c(C(=O)O)c3OB2O)c2cc(F)c(O)c(O)c2Cl)C1=O)Nc1ccncc1 (stereo partly drawn) [Example 285, (3R)-3-(2-(2-chloro-5-fluoro-3,4-dihydroxyphenyl)-2-(2-oxo-3-(3-(3-(pyridin-4-yl)ureido)propyl)imidazolidine-1-carboxamido)acetamido)-7-fluoro-2-hydroxy-3,4-dihydro-2H-benzo[e][1,2]oxaborinine-8-carboxylic acid]",> 64,> 64
"O=C(NCCS(=O)(=O)N1CCN(C(=O)N[C@@H](C(=O)N[C@H]2Cc3ccc(F)c(C(=O)O)c3OB2O)c2cc(F)c(O)c(O)c2Cl)C1=O)Nc1ccncc1 [Example 290, (R)-3-((R)-2-(2-chloro-5-fluoro-3,4-dihydroxyphenyl)-2-(2-oxo-3-((2-(3-(pyridin-4-yl)ureido)ethyl)sulfonyl)imidazolidine-1-carboxamido)acetamido)-7-fluoro-2-hydroxy-3,4-dihydro-2H-benzo[e][1,2]oxaborinine-8-carboxylic acid]",16 to 32,16 to 32
"O=C(NCCCN1CCN(C(=O)N[C@@H](C(=O)N[C@H]2Cc3ccc(F)c(C(=O)O)c3OB2O)c2cc(F)c(O)c(O)c2Cl)C(=O)C1=O)c1ccnc(F)c1F [Example 300, (R)-3-((R)-2-(2-chloro-5-fluoro-3,4-dihydroxyphenyl)-2-(4-(3-(2,3-difluoroisonicotinamido)propyl)-2,3-dioxopiperazine-1-carboxamido)acetamido)-7-fluoro-2-hydroxy-3,4-dihydro-2H-benzo[e][1,2]oxaborinine-8-carboxylic acid]",16 to 32,> 64
"O=C(NCCCN1CCN(C(=O)NC(C(=O)N[C@H]2Cc3ccc(F)c(C(=O)O)c3OB2O)c2cc(F)c(O)c(O)c2Cl)C(=O)C1=O)c1ccc(O)c(F)c1F (stereo partly drawn) [Example 306, (3R)-3-(2-(2-chloro-5-fluoro-3,4-dihydroxyphenyl)-2-(4-(3-(2,3-difluoro-4-hydroxybenzamido)propyl)-2,3-dioxopiperazine-1-carboxamido)acetamido)-7-fluoro-2-hydroxy-3,4-dihydro-2H-benzo[e][1,2]oxaborinine-8-carboxylic acid]",16 to 32,> 64
"O=C(NCCS(=O)(=O)N1CCN(C(=O)NC(C(=O)N[C@H]2Cc3ccc(F)c(C(=O)O)c3OB2O)c2cc(F)c(O)c(O)c2Cl)C1=O)c1ccncc1 (stereo partly drawn) [Example 288, (3R)-3-(2-(2-chloro-5-fluoro-3,4-dihydroxyphenyl)-2-(3-((2-(isonicotinamido)ethyl)sulfonyl)-2-oxoimidazolidine-1-carboxamido)acetamido)-7-fluoro-2-hydroxy-3,4-dihydro-2H-benzo[e][1,2]oxaborinine-8-carboxylic acid]",4 to 8,16 to 32
"O=C(NCCCN1CCN(C(=O)N[C@@H](C(=O)N[C@H]2Cc3ccc(F)c(C(=O)O)c3OB2O)c2cc(F)c(O)c(O)c2Cl)C(=O)C1=O)c1ccncc1O [Example 296, (R)-3-((R)-2-(2-chloro-5-fluoro-3,4-dihydroxyphenyl)-2-(4-(3-(3-hydroxyisonicotinamido)propyl)-2,3-dioxopiperazine-1-carboxamido)acetamido)-7-fluoro-2-hydroxy-3,4-dihydro-2H-benzo[e][1,2]oxaborinine-8-carboxylic acid]",16 to 32,> 64
"O=C(NCCCN1CCN(C(=O)N[C@H](C(=O)N[C@H]2Cc3ccc(F)c(C(=O)O)c3OB2O)c2cc(F)c(O)c(O)c2Cl)C1=O)Nc1ccc(O)cc1 [Example 283, (R)-3-((S)-2-(2-chloro-5-fluoro-3,4-dihydroxyphenyl)-2-(3-(3-(3-(4-hydroxyphenyl)ureido)propyl)-2-oxoimidazolidine-1-carboxamido)acetamido)-7-fluoro-2-hydroxy-3,4-dihydro-2H-benzo[e][1,2]oxaborinine-8-carboxylic acid]",> 64,> 64
"O=C(NCCCS(=O)(=O)N1CCN(C(=O)NC(C(=O)N[C@H]2Cc3ccc(F)c(C(=O)O)c3OB2O)c2cc(F)c(O)c(O)c2Cl)C1=O)Nc1ccncc1 (stereo partly drawn) [Example 291, (3R)-3-(2-(2-chloro-5-fluoro-3,4-dihydroxyphenyl)-2-(2-oxo-3-((3-(3-(pyridin-4-yl)ureido)propyl)sulfonyl)imidazolidine-1-carboxamido)acetamido)-7-fluoro-2-hydroxy-3,4-dihydro-2H-benzo[e][1,2]oxaborinine-8-carboxylic acid]",16 to 32,16 to 32
"O=C(NCCCS(=O)(=O)N1CCN(C(=O)NC(C(=O)N[C@H]2Cc3ccc(F)c(C(=O)O)c3OB2O)c2cc(F)c(O)c(O)c2Cl)C1=O)Nc1cccnc1 (stereo partly drawn) [Example 278, (3R)-3-(2-(2-chloro-5-fluoro-3,4-dihydroxyphenyl)-2-(2-oxo-3-((3-(3-(pyridin-3-yl)ureido)propyl)sulfonyl)imidazolidine-1-carboxamido)acetamido)-7-fluoro-2-hydroxy-3,4-dihydro-2H-benzo[e][1,2]oxaborinine-8-carboxylic acid]",16 to 32,16 to 32
"Cc1cc(C(=O)NCCCN2CCN(C(=O)NC(C(=O)N[C@H]3Cc4ccc(F)c(C(=O)O)c4OB3O)c3cc(F)c(O)c(O)c3Cl)C(=O)C2=O)c(F)cn1 (stereo partly drawn) [Example 301, (3R)-3-(2-(2-chloro-5-fluoro-3,4-dihydroxyphenyl)-2-(4-(3-(5-fluoro-2-methylisonicotinamido)propyl)-2,3-dioxopiperazine-1-carboxamido)acetamido)-7-fluoro-2-hydroxy-3,4-dihydro-2H-benzo[e][1,2]oxaborinine-8-carboxylic acid]",16 to 32,> 64
"O=C(NCCCN1CCN(C(=O)NC(C(=O)N[C@H]2Cc3ccc(F)c(C(=O)O)c3OB2O)c2cc(F)c(O)c(O)c2Cl)C(=O)C1=O)c1ccncc1Cl (stereo partly drawn) [Example 295, (3R)-3-(2-(2-chloro-5-fluoro-3,4-dihydroxyphenyl)-2-(4-(3-(3-chloroisonicotinamido)propyl)-2,3-dioxopiperazine-1-carboxamido)acetamido)-7-fluoro-2-hydroxy-3,4-dihydro-2H-benzo[e][1,2]oxaborinine-8-carboxylic acid]",16 to 32,> 64
"O=C(NCCCN1CCN(C(=O)N[C@@H](C(=O)N[C@H]2Cc3ccc(F)c(C(=O)O)c3OB2O)c2cc(F)c(O)c(O)c2Cl)C(=O)C1=O)c1cccc(O)c1Cl [Example 303, (R)-3-((R)-2-(4-(3-(2-chloro-3-hydroxybenzamido)propyl)-2,3-dioxopiperazine-1-carboxamido)-2-(2-chloro-5-fluoro-3,4-dihydroxyphenyl)acetamido)-7-fluoro-2-hydroxy-3,4-dihydro-2H-benzo[e][1,2]oxaborinine-8-carboxylic acid]",4 to 8,16 to 32
"O=C(NCCS(=O)(=O)N1CCN(C(=O)N[C@@H](C(=O)N[C@H]2Cc3ccc(F)c(C(=O)O)c3OB2O)c2cc(F)c(O)c(O)c2Cl)C1=O)c1ccc(O)cc1 [Example 287, (R)-3-((R)-2-(2-chloro-5-fluoro-3,4-dihydroxyphenyl)-2-(3-((2-(4-hydroxybenzamido)ethyl)sulfonyl)-2-oxoimidazolidine-1-carboxamido)acetamido)-7-fluoro-2-hydroxy-3,4-dihydro-2H-benzo[e][1,2]oxaborinine-8-carboxylic acid]",4 to 8,16 to 32
